Experimental data as given in patent US6737383B1, “Herbicidal oxadiazolidines” (priority 1999, dated 2004).

How the values were obtained:
Conditions in all cases: Preemergence, 0 to 100 scale
sandbur = assay: Test D sandbur; format: in vivo, Cenchrus echinatus
In short: (§1)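 Values are visual plant-response ratings (0 no injury, 100 complete control) recorded 14 to 21 days after herbicide treatment, using a non-phytotoxic solvent mixture containing surfactant. Preemergence applications went to the surface of pots holding freshly sown seed in sandy loam.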

Johnson grass = assay: Test D Johnson grass; format: in vivo, Sorghum halepense
Text: (§2) Seeds, tubers, or plant parts of Alexandergrass (Brachiaria plantaginea), bermuda-grass (Cynodon dactylon), common pursiane (Portulaca oleracea), common ragweed (Ambrosia elatior), common groundsel (Senecio vulgaris), dallisgrass (Paspalum dilatatum), goosegrass (Eleusine indica), guineagrass (Panicum maximum), itchgrass (Rottboellia exaltata), Johnson grass (Sorghum halepense), large crabgrass (Digitaria sanguinalis), pitted morningglory (Ipomoea lacunosa), purple nutsedge (Cyperus rotundus), sandbur (Cenchrus echinatus), sourgrass (Trichachne insularis), Spanishneedles (Bidens bipinnata), surinam grass (Brachiaria decumbens) and tall mallow (Malva sylvestris) were planted into greenhouse pots of flats containing greenhouse planting medium. Plant species were grown in separate pots or individual compartments. Preemergence applications were made within one day of planting the seed or plant part.
(§3) Test chemicals were formulated in a non-phytotoxic solvent mixture which included a surfactant and applied preemergence to the surface of the pot containing seeds in a sandy loam soil. Untreated control pots and treated pots were placed in the greenhouse for growth and visually evaluated for injury 14 to 21 days after herbicide application. Plant response ratings, summarized in Table C, are based on a 0 to 100 scale where 0 is no injury and 100 is complete control. A dash (−) response means no test result.

tall mallow = assay: Test D tall mallow; format: in vivo, Malva sylvestris
Text: as §2, §3

common groundsel = assay: Test D common groundsel; format: in vivo, Senecio vulgaris
In short: as §1

[1] = Rate 32 g/ha, 0 no injury, 100 complete control
[2] = Rate 64 g/ha, 0 no injury, 100 complete control
[3] = Rate 125 g/ha, 0 no injury, 100 complete control
[4] = Rate 16 g/ha, 0 no injury, 100 complete control

Compound	Plant response rating, Sandbur (sandbur; [1])	Sandbur plant response rating (sandbur; [2])	Sandbur plant response rating (sandbur; [3])	Plant response rating, Johnsongrass (Johnson grass; [1])	Plant response rating, Johnsongrass (Johnson grass; [2])	Plant response rating, Johnsongrass (Johnson grass; [3])	Plant response rating, Tall Mallow (tall mallow; [1])	Tall Mallow plant response rating (tall mallow; [2])	Tall Mallow plant response rating (tall mallow; [3])	Plant response rating, Com. groundsel (common groundsel; [1])	Plant response rating, Com. groundsel (common groundsel; [2])	Plant response rating, Com. groundsel (common groundsel; [3])	also measured
Cc1ccc(-n2c(=O)on(C(=O)N(c3ccc(F)cc3F)C(C)C)c2=O)c(C)c1 [Compound 24]	20	20	20	0	0	0	0	0	0	0	0	0	Plant response rating, Sandbur (sandbur; Rate 250 g/ha): 20; Plant response rating, Sandbur (sandbur; Rate 500 g/ha): 100; Plant response rating, Johnsongrass (Johnson grass; Rate 250 g/ha): 85; Plant response rating, Johnsongrass (Johnson grass; Rate 500 g/ha): 85; Plant response rating, Tall Mallow (tall mallow; Rate 250 g/ha): 0; Plant response rating, Tall Mallow (tall mallow; Rate 500 g/ha): 0; Plant response rating, Com. groundsel (common groundsel; Rate 250 g/ha): 0; Plant response rating, Com. groundsel (common groundsel; Rate 500 g/ha): 0
CC(C)N(C(=O)n1oc(=O)n(C(C)C)c1=O)c1ccccc1 [Compound 113]	65	75	100	60	80	90	0	0	30	65	100	100	Plant response rating, Sandbur (sandbur; [4]): 0; Plant response rating, Johnsongrass (Johnson grass; [4]): 0; Plant response rating, Tall Mallow (tall mallow; [4]): 0; Plant response rating, Com. groundsel (common groundsel; [4]): 0
